What was measured:
[1] = Compound was tested for Inhibition of [3H]-DPDPE (0.2 nM) binding to Opioid receptor from bovine striatal Membranes
[2] = Compound was tested for Inhibition of 9 (1 nM) binding to Opioid receptor delta 1 from bovine striatal Membranes

Structure (SMILES): C=C(Cl)C(=O)N[C@@]12CCC(=O)[C@@H]3Oc4c(O)ccc5c4C31CCN(CC1CC1)C2C5 (stereo partly drawn) [1N-[4-cyclopropylmethyl-10-hydroxy-14-oxo-(13R,17S)-12-oxa-4-azapentacyclo[9.6.1.01,13.05,17.07,18]octadeca-7(18),8,10-trien-17-yl]-2-chloroacrylamide]
- IC50 [1]: 501 nM
- IC50 [2]: 177 nM

Structure (SMILES): C=C(Cl)C(=O)N[C@@H]1CCC2C3Cc4ccc(O)c5c4C2(CCN3CC2CC2)[C@H]1O5 (stereo partly drawn) [1N-[4-cyclopropylmethyl-10-hydroxy-(13R,14R)-12-oxa-4-azapentacyclo[9.6.1.01,13.05,17.07,18]octadeca-7(18),8,10-trien-14-yl]-2-chloroacrylamide]
- IC50 [1]: 1.5 nM
- IC50 [2]: 0.53 nM

Structure (SMILES): C=C(Cl)C(=O)N[C@@]12CCC(=O)[C@@H]3Oc4c(O)ccc5c4C31CCN(C)C2C5 (stereo partly drawn) [1N-[10-hydroxy-4-methyl-14-oxo-(13R,17S)-12-oxa-4-azapentacyclo[9.6.1.01,13.05,17.07,18]octadeca-7(18),8,10-trien-17-yl]-2-chloroacrylamide]
- IC50 [1]: 184 nM
- IC50 [2]: 178 nM

Structure (SMILES): C=C(Cl)C(=O)N[C@@H]1CCC2C3Cc4ccc(O)c5c4C2(CCN3C)[C@H]1O5 (stereo partly drawn) [1N-[10-hydroxy-4-methyl-(13R,14R)-12-oxa-4-azapentacyclo[9.6.1.01,13.05,17.07,18]octadeca-7(18),8,10-trien-14-yl]-2-chloroacrylamide]
- IC50 [1]: 26 nM
- IC50 [2]: 45 nM
